The record followed here is patent US20250041313A1, “COMBINATION THERAPY FOR TREATMENT OF CANCER” (CITY OF HOPE, priority 2023, published 2025).

This assay concerns SBC3 cells. Kind of assay: Immunoblotting of cell lysates (pDRP1, p53, DNA damage markers). The assay is classed as cell-based, human. The protocol: SCLC total cell lysates were prepared using RIPA (radioimmunoprecipitation assay lysis buffer) lysis buffer. Protein concentration was determined using DC Protein Assay Kit Bio-Rad (Hercules, CA). Samples were then run on SDS-PAGE in 4-15% polyacrylamide gels and transferred onto Immobilon membranes (Millipore, MO), blocked, incubated with specific primary antibodies at 4° C. overnight, and subsequently developed with secondary antibodies. The following primary antibody were used: pan-Actin, Phospho-DRP1 (Ser^616), Phospho-DRP1 (Ser^637), Histone H2B (V^119), Phospho-Histone H2A.X (Ser^139), Phospho-P53 (Ser^15), P-53, Cleaved PARP (Asp^214) (D64E10), Phospho-Chk1 (Ser^345) (133D3) and p21 were from Cell Signaling Technology (City of Industry, CA), β-Actin (Sigma-Aldrich, St. Luis, MO), Phospho RNA Polymerase II (S2) antibody (Bethyl Lab, Montgomery, TX), RNA Polymerase II CTD4H8 (BioLegend, San Diego, CA), DHODH (E-8), DRP1 (C-5), GAPDH (0411), c-Myc (9E10), Tom20 (F-10), FisI (B-5), OPA1 (D-9), antibodies from Santa Cruz Biotechnology (Dallas, TX) and MFN2 (Abcam, Boston, MA) and Chk1, MDM2, Cyclin CDK4 and D1, and E2F1 (Proteintech, Rosemont, IL).

As to `C/C(O)=C(\C#N)C(=O)Nc1ccc(C(F)(F)F)cc1` [Teriflunomide, teriflunomide], the “ratio of pDRP1 (Ser616) to pDRP1 (Ser637)” value (SBC3, densitometry) was “significantly decreased in a dose-dependent manner”. For the setting “SBC3, immunoblot”, the DRP1 expression level entry is “unaffected”; the “DRP1 phosphorylation at Ser616, and Ser637” value is on record as “significantly inhibited”.
